Test results from US20090191193A1, “Aryl Vinyl Sulfides, Sulfones, Sulfoxides and Sulfonamides, Derivatives Thereof and Therapeutic Uses Thereof” (TEMPLE UNIVERSITY-OF THE COMMONWEALTH SYSTEM OF HIGHER …, priority 2006, published 2009).

What was measured:
[1] = tested on: K562 (chronic myelogenous leukaemia); assay: Effect on tumor cell lines, viable cell count by trypan blue exclusion (Latham et al.): K562; assay type: cell-based; settings: K562 chronic myelogenous leukaemia cells, viable cell count 96 hours after treatment
Description: (§1) The effect of the compounds of the invention on tumor cells was determined by the assay described by Latham et al., Oncogene 12:827-837 (1996). Tumor cells DU145 (prostate cancer), K562 (chronic myelogenous leukaemia), BT20 (breast carcinoma), H157 (non small cell lung carcinoma), or DLD1 (colon carcinoma) were plated in 6-well dishes at a cell density of 1.0×10^5 cells per 35-mm^2 well. […] The total number of viable cells was determined 96 hours later by trypsinizing the wells and counting the number of viable cells, as determined by trypan blue exclusion, using a hemacytometer. Normal HFL cells were treated with the same compounds under the same conditions of concentration and time.

DU145 (prostate cancer) = assay: Effect on tumor cell lines, viable cell count by trypan blue exclusion (Latham et al.): DU145; assay type: cell-based; settings: DU145 prostate cancer cells, viable cell count 96 hours after treatment
Description: as §1

Compound	melting point	IC50 ([1]; Homo sapiens, K562, 96 h)	IC50 (DU145 (prostate cancer); Homo sapiens, DU-145, 96 h)	IC50 [1]	IC50 (DU145 (prostate cancer))
N#C/C(=C\c1ccc(O)cc1O)S(=O)(=O)Cc1ccc(Cl)cc1 [Example 60]	250 to 255 °C	> 100 µM	> 100 µM		
Cc1ccc(NS(=O)(=O)/C(C#N)=C/c2ccccc2Cl)c(C)c1 [Example 256]	116 to 119 °C	1 to 10 µM	25 to 50 µM		
COc1ccc(/C=C(\C#N)S(=O)(=O)Cc2ccc(Cl)cc2)cc1O [Example 44]	155 to 165 °C	50 to 100 µM	> 100 µM		
COc1ccc(/C=C(\C#N)S(=O)(=O)Cc2ccccc2)c(OC)c1 [Example 132]	125 to 130 °C	> 100 µM	> 100 µM		
COc1ccc(NS(=O)(=O)/C(C#N)=C/c2ccccc2OCc2ccccc2)cc1 [Example 277]	111 to 112 °C	10 to 25 µM	10 to 25 µM		
COc1cc(/C=C(\C#N)S(=O)(=O)Nc2ccc(C)cc2C)cc(OC)c1OC [Example 268]	178 to 180 °C	50 to 100 µM	> 100 µM		
CCOc1ccc(/C=C(\C#N)S(=O)(=O)Nc2ccc(Br)cc2)cc1OC [Example 219]	188 to 190 °C	50 to 100 µM	50 to 100 µM		
Cc1ccoc1/C=C(\C#N)S(=O)(=O)Cc1ccc(Cl)cc1Cl [Example 103]	184 to 189 °C	50 to 100 µM	> 100 µM		
N#C/C(=C\c1ccoc1)S(=O)(=O)Cc1cccc(Br)c1 [Example 115]	128 to 132 °C	> 100 µM	> 100 µM		
Cc1ccc(NS(=O)(=O)/C(C#N)=C/c2ccc(C)s2)c(C)c1 [Example 265]	158 to 160 °C	25 to 50 µM	50 to 100 µM		
Cc1ccoc1/C=C(\C#N)S(=O)(=O)Cc1ccccc1 [Example 128]	118 to 121 °C	50 to 100 µM	> 100 µM		
Cc1ccc(NS(=O)(=O)/C(C#N)=C/c2ccc(N(C)C)cc2)c(C)c1 [Example 255]	168 to 171 °C	25 to 50 µM	25 to 50 µM		
COc1cc(/C=C(\C#N)S(=O)(=O)Cc2ccccc2)cc(OC)c1OC [Example 131]	142 to 146 °C	50 to 100 µM	> 100 µM		
COc1ccc(NS(=O)(=O)/C(C#N)=C/c2c(OC)cc(OC)cc2OC)cc1 [Example 191]	134 to 136 °C			1 to 10 µM	1 to 10 µM
N#C/C(=C\c1ccccc1OCc1ccccc1)S(=O)(=O)Nc1ccc(Br)cc1 [Example 213]	128 to 130 °C	25 to 50 µM	25 to 50 µM		
CN(C)c1ccc(/C=C(\C#N)S(=O)(=O)Nc2ccccc2Oc2ccccc2)cc1 [Example 206]	158 to 160 °C	> 100 µM	> 100 µM		
COc1ccc(NS(=O)(=O)/C(C#N)=C/c2cc(OC)c(OC)cc2OC)cc1 [Example 284]	171 to 173 °C	25 to 50 µM	> 100 µM		
CCOc1ccc(/C=C(\C#N)S(=O)(=O)Nc2ccc(OC)cc2)cc1OC [Example 287]	111 to 113 °C	> 100 µM	> 100 µM		
Cc1ccc(NS(=O)(=O)/C(C#N)=C/c2c[nH]c3ccccc23)c(C)c1 [Example 253]	192 to 194 °C	25 to 50 µM	50 to 100 µM		
COc1ccc(NS(=O)(=O)/C(C#N)=C/c2cc(OC)ccc2OC)cc1 [Example 202]	156 to 158 °C	10 to 25 µM	50 to 100 µM		
Cc1ccc(/C=C(\C#N)S(=O)(=O)Nc2ccccc2Oc2ccccc2)s1 [Example 198]	141 to 143 °C	50 to 100 µM	50 to 100 µM		
COc1cc(/C=C(\C#N)S(=O)(=O)Cc2ccccc2)cc(OC)c1 [Example 134]	152 to 156 °C	10 to 25 µM	50 to 100 µM		
Cc1ccc(NS(=O)(=O)/C(C#N)=C/c2ccc(Cl)c(Cl)c2)c(C)c1 [Example 274]	141 to 143 °C	50 to 100 µM	50 to 100 µM		
COc1cc(OC)c(/C=C(\C#N)S(=O)(=O)Cc2ccc(Br)cc2)c(OC)c1 [Example 20]	158 to 160 °C	10 µM	75 µM		
COc1ccc(CS(=O)(=O)/C(C#N)=C/c2ccc(-c3ccccc3)cc2)cc1 [Example 140]				> 100 µM	> 100 µM
COc1ccc(NS(=O)(=O)/C(C#N)=C/c2ccc(Br)cc2)cc1 [Example 190]	106 to 107 °C	50 µM	50 µM		
N#C/C(=C\c1ccc(Br)cc1)S(=O)(=O)Cc1ccc(F)cc1 [Example 82]	155 to 168 °C	> 100 µM	> 100 µM		
N#C/C(=C\c1ccc(O)c(O)c1)S(=O)(=O)Cc1cccc(Br)c1 [Example 116]	119 to 121 °C	> 100 µM	> 100 µM		

Compound	melting point	IC50 ([1]; Homo sapiens, K562, 96 h)	IC50 (DU145 (prostate cancer); Homo sapiens, DU-145, 96 h)	IC50 [1]	IC50 (DU145 (prostate cancer))
N#C/C(=C\c1ccc(Br)cc1)S(=O)(=O)Cc1ccc(Cl)cc1 [Example 45]	168 to 180 °C	50 to 100 µM	50 to 100 µM		
N#C/C(=C\c1ccccc1Cl)S(=O)(=O)Nc1ccc(Br)cc1 [Example 227]	192 to 194 °C	25 to 50 µM	50 to 100 µM		
Cc1ccsc1/C=C(\C#N)S(=O)(=O)Cc1ccc(Cl)cc1Cl [Example 102]				50 to 100 µM	> 100 µM
N#C/C(=C\c1ccccc1O)S(=O)(=O)Cc1ccc(Cl)cc1 [Example 121]	171 to 176 °C	> 100 µM	> 100 µM		
Cc1ccc(NS(=O)(=O)/C(C#N)=C/c2ccc(C)c(C)c2)c(C)c1 [Example 264]	166 to 169 °C	> 100 µM	> 100 µM		
COc1ccc(NS(=O)(=O)/C(C#N)=C/c2ccc(Br)cc2)cc1 [Example 291]	102 to 103 °C			50 to 100 µM	50 to 100 µM
N#C/C(=C\c1ccccc1Cl)S(=O)(=O)Cc1ccc(Br)cc1 [Example 144]	143 to 147 °C	25 to 50 µM	> 100 µM		
N#C/C(=C\c1c[nH]c2ccccc12)S(=O)(=O)Nc1ccc(F)cc1 [Example 231]	202 to 204 °C	25 to 50 µM	50 to 100 µM		
CCOc1cc(/C=C(\C#N)S(=O)(=O)Cc2ccc(Cl)cc2)ccc1O [Example 74]	150 to 165 °C			50 to 100 µM	50 to 100 µM
N#C/C(=C\c1c[nH]c2ccccc12)S(=O)(=O)Nc1ccc(Cl)cc1 [Example 205]	216 to 217 °C	25 to 50 µM	50 to 100 µM		
COc1ccc(/C=C(\C#N)S(=O)(=O)Cc2ccc(Cl)cc2Cl)cc1 [Example 99]	114 to 127 °C	50 to 100 µM	> 100 µM		
COc1cc(OC)c(OC)cc1/C=C(\C#N)S(=O)(=O)Cc1ccc(Cl)cc1Cl [Example 107]	164 to 170 °C	> 100 µM	50 to 100 µM		
COc1ccc(NS(=O)(=O)/C(C#N)=C/c2ccccc2O)cc1 [Example 292]	197 to 198 °C	50 to 100 µM	> 100 µM		
COc1ccc(NS(=O)(=O)/C(C#N)=C/c2ccc(SC)cc2)cc1 [Example 293]				> 100 µM	> 100 µM
COc1cc(OC)c(/C=C(\[N+](=O)[O-])S(=O)(=O)Cc2ccc(F)cc2)c(OC)c1 [Example 189]		5 µM	2.5 µM		
CSc1ccc(/C=C(\C#N)S(=O)(=O)Cc2ccc(Cl)cc2)cc1 [Example 43]				50 to 100 µM	> 100 µM
Cc1ccc(NS(=O)(=O)/C(C#N)=C/c2ccc(-c3ccccc3)cc2)c(C)c1 [Example 260]				25 to 50 µM	50 to 100 µM
N#C/C(=C\c1ccc(-c2ccccc2)cc1)S(=O)(=O)Nc1ccc(Br)cc1 [Example 220]				10 to 25 µM	50 to 100 µM
COc1ccc(NS(=O)(=O)/C(C#N)=C/c2ccc(-c3ccccc3)cc2)cc1 [Example 286]				50 to 100 µM	50 to 100 µM
Cc1ccsc1/C=C(\C#N)S(=O)(=O)Cc1ccccc1 [Example 127]				> 100 µM	> 100 µM
CSc1ccc(/C=C(\C#N)S(=O)(=O)Nc2ccc(C)cc2C)cc1 [Example 276]				> 100 µM	> 100 µM
N#C/C(=C\c1ccc(-c2ccccc2)cc1)S(=O)(=O)Cc1ccccc1 [Example 138]				> 100 µM	> 100 µM
CN(C)c1ccc(/C=C(\C#N)S(=O)(=O)Cc2ccc(Cl)cc2)cc1 [Example 58]		25 to 50 µM	50 to 100 µM		
COc1ccc(CS(=O)(=O)/C(=C/c2c(OC)cc(OC)cc2OC)[N+](=O)[O-])cc1 [Example 188]		2 µM	< 1 µM		
N#C/C(=C\c1ccc(-c2ccccc2)cc1)S(=O)(=O)Nc1ccc(F)cc1 [Example 239]				10 to 25 µM	50 to 100 µM
CSc1ccc(/C=C(\C#N)S(=O)(=O)Cc2ccc(F)cc2)cc1 [Example 87]				25 to 50 µM	25 to 50 µM
CCOC(=O)c1c(C)[nH]c(/C=C(\C#N)S(=O)(=O)Cc2ccc(F)cc2)c1C [Example 37, (E)-2-[(4-fluorophenyl)methanesulfonyl]-3-(4-ethoxycarbonyl-3,5-dimethylpyrrol-2-yl)acrylonitrile]		50 to 100 µM	50 to 100 µM		
